Source: BindingDB's records for doi:10.1074/jbc.M114.553248 (National Taiwan University, 2014)
pKd: −log10 of the molar value.

Experiments:
[1] = target: Isoform A1-A of Heterogeneous nuclear ribonucleoprotein A1 (A1-A) 68-320] (Homo sapiens, UniProt P09651); experiment: Surface Plasmon Resonance (SPR) Assay; conditions: pH 4
Source text: (§1) Recombinant full-length hnRNPA1 (aa 1-320) and truncated versions of hnRNPA1, including the N-terminal RNA binding domain (aa 1-196), the middle region (aa 182-268), and the C-terminal region (aa 268-320), were individually covalently coupled to a dextran matrix (CM5 chip) using a Biacore T200 system (GE Healthcare), following the manufacturer's protocols. Immobilized proteins were activated with N-hydroxysuccinimide and 1-ethyl-3-(3-dimethylaminopropyl) carbodiimide to form a […] between carboxyl moieties on the dextran and […] on the protein. hnRNPA1 variants were dissolved in 10 mM acetate buffer (full-length, pH 4; N-terminal RNA binding domain and the C-terminal region, pH 4.5; middle region, pH 5) to a concentration of 20 μg/ml and flowed over the activated surface for 5 min with PBS. Unreacted groups were blocked with ethanolamine. PBS containing 0.05% (v/v) P20 (surfactant) and 5% DMSO was used for priming and conditioning the surface of the chips. Quercetin was serially diluted (from 200 to 3 μM) in PBS buffer and maintained in DMSO (5% (v/v)) (final concentrations from 10 to 0.15 μM). The baseline response was determined for 120 s (30 μl/min) before perfusing the immobilized proteins with the compounds to allow association to occur. Dissociation was then monitored over a period of an additional 120 s. […]

[2] = target: Isoform A1-A of Heterogeneous nuclear ribonucleoprotein A1 (A1-A) (Homo sapiens, UniProt P09651); experiment: Surface Plasmon Resonance (SPR) Assay; conditions: pH 4
Isoform A1-A of Heterogeneous nuclear ribonucleoprotein A1 (A1-A), sequence (P09651 as listed by the source): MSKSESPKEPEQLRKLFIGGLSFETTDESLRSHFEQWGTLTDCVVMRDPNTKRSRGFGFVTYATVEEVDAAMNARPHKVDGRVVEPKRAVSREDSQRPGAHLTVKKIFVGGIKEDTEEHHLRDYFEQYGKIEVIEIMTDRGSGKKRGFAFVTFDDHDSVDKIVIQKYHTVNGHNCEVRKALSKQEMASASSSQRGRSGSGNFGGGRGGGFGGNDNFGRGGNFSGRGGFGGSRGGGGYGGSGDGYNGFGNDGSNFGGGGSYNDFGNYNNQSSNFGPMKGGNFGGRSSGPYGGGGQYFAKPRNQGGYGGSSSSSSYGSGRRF
Source text: as §1

Isoform A1-A of Heterogeneous nuclear ribonucleoprotein A1 (A1-A) 68-320], sequence (P09651 320-372): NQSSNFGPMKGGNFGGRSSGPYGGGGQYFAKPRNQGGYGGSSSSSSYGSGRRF

O=c1c(O)c(-c2ccc(O)c(O)c2)oc2cc(O)cc(O)c12 [2-(3,4-dihydroxyphenyl)-3,5,7-trihydroxy-chromone;hydrate]
pKd [1]: 5.77
pKd [2]: 5.05
